Laboratory results as given in patent US8101634B2, “Bicyclic compounds and use as antidiabetics” (GlaxoSmithKline LLC, priority 2006, dated 2012).

Tests used:
C57BI6/J mice = experiment: Oral glucose tolerance test (OGTT) in normal mice one hour after oral administration; type: in vivo; conditions: for glucose area-under-the curve (AUC) over the 120 minute time course, result in words: OGTT in mice, vs vehicle; for % of Vehicle (glucose cAUC): OGTT one hour after p.o. dosing; for % of Vehicle (glucose cAUC) / Glucose cAUC (baseline corrected glucose area under the curve during OGTT): Examples 30 mg/kg, vildagliptin 10 mg/kg, n=10; for Glucose cAUC (baseline corrected glucose area under the curve during OGTT): fasted male C57BI6/J mice, OGTT 2 g dextrose/kg one hour after p.o. dosing, mean ± s.e.m., 120 min
Description: In Vivo Effects of GPR119 Agonists on Incretin Hormone Release and Glucose Homeostasis in Mice
Vehicle or compounds were delivered orally via a gavage needle (p.o. at 10 mls/kg). The effect of the GPR119 agonists on glucose homeostasis was assessed by conducting an oral glucose tolerance test (OGTT; 2 g dextrose per kg body weight) one hour after administration of vehicle or test compounds. Whole blood glucose levels were determined prior to compound administration, immediately before and 10, 20, 30, 45, 60, 90 and 120 after glucose administration, using a Glucometer (Freestyle, Therasense).
Table 1 summarizes the glucose excursions during the OGTT as the average baseline corrected glucose area under the curve (cAUC; ±s.e.m.) from the animals in each treatment group.

C57/BI6 mice = experiment: Plasma total GLP-1 and total GIP in normal mice one hour after oral administration; type: in vivo; conditions: for total circulating GIP levels, result in words / total circulating GLP-1 levels, result in words: 1 hr after giving the compound, compared to vehicle; for Total GIP (plasma) / Total GLP-1 (plasma) / Total GIP, fold change vs. Vehicle / Total GLP-1, fold change vs. Vehicle: C56BI6/J mice, one hour following oral administration of 30 mg/kg; for Total GIP (plasma) / Total GLP-1 (plasma): fasted, mean ± s.e.m.
Description: GPR119 Agonists Elevate GIP and GLP-1 in Normal Mice
Male C57/BI6 mice 10 weeks of age were fasted for 15 hrs and randomly grouped (n=6-10) to receive vehicle (0.5% HPMC/0.1% Tween) or a GPR119 agonists of the present invention at 30 mg/kg. 1 hr after compound administration blood was collected by cardiac-stick following iso-fluorane aneasthesia. Blood for analysis of plasma levels of total GLP-1 and total GIP was placed in a K2-EDTA containing tubes supplemented with a DPP-IV inhibitor to prevent degradation of the incretin hormones (30 µM final concentration). Total GLP-1 was determined using an assay from Meso Scale Discovery (Gaithersburg, Md.). GIP was determined using an ELISA assay from Linco (St. Charles, Mo.). For each treatment group Table 2 summarizes the average plasma levels of total GLP-1 (±s.e.m.) from the number of animals in each treatment group as indicated.
Table 3 summarizes the average plasma levels of total GIP (±s.e.m.) from the number of animals in each treatment group as indicated.

With `CC(C)OC(=O)N1CCC(COc2ccc(-c3ccc(S(C)(=O)=O)cc3F)nc2)CC1` [Example 77, 1-Methylethyl 4-[({6-[2-fluoro-4-(methylsulfonyl)phenyl]-3-pyridinyl}oxy)methyl]-1-piperidinecarboxylate] the “glucose area-under-the curve (AUC) over the 120 minute time course, result in words” value (C57BI6/J mice) was “significantly lowered”, the “% of Vehicle (glucose cAUC)” value (C57BI6/J mice) was 21% and the “Glucose cAUC (baseline corrected glucose area under the curve during OGTT)” value (C57BI6/J mice) was 6884 ± 694 mg·min/dL. The “total circulating GIP levels, result in words” value (C57/BI6 mice) was “increase”, the “total circulating GLP-1 levels, result in words” value (C57/BI6 mice) was “increase” and the “Total GIP (plasma)” value (C57/BI6 mice) was 182 ± 12 pg/mL. The “Total GLP-1 (plasma)” value (C57/BI6 mice) was 7.5 ± 2.0 pg/mL, the “Total GIP, fold change vs. Vehicle” value (C57/BI6 mice) was 2.2 and the “Total GLP-1, fold change vs. Vehicle” value (C57/BI6 mice) was 3.3.

With `CC(C)c1noc(N2CCC(COc3ccc(-c4ccc(S(C)(=O)=O)cc4F)nc3)CC2)n1` [Example 83, 2-[2-Fluoro-4-(methylsulfonyl)phenyl]-5-[({1-[3-(1-methylethyl)-1,2,4-oxadiazol-5-yl]-4-piperidinyl}methyl)oxy]pyridine] the “glucose area-under-the curve (AUC) over the 120 minute time course, result in words” value (C57BI6/J mice) was “significantly lowered”, the “% of Vehicle (glucose cAUC)” value (C57BI6/J mice) was 23% and the “Glucose cAUC (baseline corrected glucose area under the curve during OGTT)” value (C57BI6/J mice) was 6754 ± 286 mg·min/dL. For the same compound, the “total circulating GIP levels, result in words” value (C57/BI6 mice) was “increase”, the “total circulating GLP-1 levels, result in words” value (C57/BI6 mice) was “increase” and the “Total GIP (plasma)” value (C57/BI6 mice) was 275 ± 29 pg/mL. The “Total GLP-1 (plasma)” value (C57/BI6 mice) was 6.8 ± 1.8 pg/mL, the “Total GIP, fold change vs. Vehicle” value (C57/BI6 mice) was 3.3 and the “Total GLP-1, fold change vs. Vehicle” value (C57/BI6 mice) was 3.0.
